The values below come from PMC7452424, “Discovery and characterisation of circular bacteriocin plantacyclin B21AG from Lactiplantibacillus plantarum B21” (Heliyon, 2020).

The format of the data set is physicochemical. As to the method:
The L. plantarum B21 bacteriocin was purified from the CFS by a three-step protocol process consisting of concentration, n-butanol extraction and cation exchange chromatography by Fast Protein Liquid Chromatography (FPLC). All purification steps were carried out at room temperature. L. plantarum B21 was used as an inoculum 2% (v/v) into 165 mL of MRS broth and incubated at 30 °C for 24 h without shaking. The CFS was prepared as previously described. The CFS was concentrated to 70 mL through a 10 kDa polyethersulfone membrane discs (Generon, UK) using an Amicon UF cell (Model 8200, Millipore, USA). The concentrated CFS was subjected to n-butanol extraction according to Abo-Amer with a few modifications. The concentrated L. plantarum B21 CFS was extracted twice in 1:1 volume of water saturated n-butanol and centrifuged at 10,000 × g for 10 min. The n-butanol fraction containing the bacteriocin was freeze dried (FDU-8612, Operon Co. Ltd, Korea) to remove the solvent. The dried n-butanol fraction was redissolved in 20 mM sodium phosphate buffer, pH 6.0. Both the n-butanol and aqueous fractions were examined for antimicrobial activity. […] The concentration of the bacteriocin was measured after each step of protein purification using Pierce™ BCA Protein Assay Kit (Thermo Fisher Scientific, USA) according to manufacturer's instruction.

For “cyclo(AAAGALGGTAAIVWIARQFGVHLTTKLTQKALDLLSSGASLGTVAAVILGVTLPGWAV) [plantacyclin B21AG]”, the Solubility in butanol result is listed as “remarkable solubility”.
